In patent publication US9822147B2, “Methods of treating ophthalmic diseases using NPR-B agonists” (priority 2009, dated 2017):
Peptide text beside a SMILES is read from it.

How the values were obtained:
[1] = tested on: human renal carcinoma cells; conditions: 100 μM; cited from earlier work
rabbit eyes = experiment: Efficacy in the rabbit: intraocular pressure (IOP) after a single topical ocular drop; assay type: in vivo; conditions: dose 300 ug topical ocular, single 30 μL drop, up to 4 hr post dose, 1% as suspension (+) or solution (++) per mark on label
Method: A single 30 μL drop of a test item formulation was administered to rabbit eyes (n=8 to 10).
Intraocular pressure (IOP) was assessed in each eye at 0 hr, just prior to dosing, and again hourly for up to 4 hr post dose. The efficacy of a given formulation was determined based on the difference between the pretreatment TOP readings at 0 hr and the post treatment readings. A maximum percent reduction in IOP greater than 15% was noted by the “+” symbol. A maximum IOP reduction of less than 15% was assigned the “−” symbol.

[2] = tested on: small-cell lung cancer cells; conditions: 100 μM; cited from earlier work
NPR-B receptor = target: T1, NPR-B receptor (Mus musculus, UniProt Q6VVW5); conditions: AtT-20 cells; cited from earlier work
T1 construct: the only natriuretic receptor present on the cell surface was the NPR-B receptor; host or cells: AtT-20 pituitary tumor cells (endogenous receptor)
T1 sequence (Q6VVW5 17-1047): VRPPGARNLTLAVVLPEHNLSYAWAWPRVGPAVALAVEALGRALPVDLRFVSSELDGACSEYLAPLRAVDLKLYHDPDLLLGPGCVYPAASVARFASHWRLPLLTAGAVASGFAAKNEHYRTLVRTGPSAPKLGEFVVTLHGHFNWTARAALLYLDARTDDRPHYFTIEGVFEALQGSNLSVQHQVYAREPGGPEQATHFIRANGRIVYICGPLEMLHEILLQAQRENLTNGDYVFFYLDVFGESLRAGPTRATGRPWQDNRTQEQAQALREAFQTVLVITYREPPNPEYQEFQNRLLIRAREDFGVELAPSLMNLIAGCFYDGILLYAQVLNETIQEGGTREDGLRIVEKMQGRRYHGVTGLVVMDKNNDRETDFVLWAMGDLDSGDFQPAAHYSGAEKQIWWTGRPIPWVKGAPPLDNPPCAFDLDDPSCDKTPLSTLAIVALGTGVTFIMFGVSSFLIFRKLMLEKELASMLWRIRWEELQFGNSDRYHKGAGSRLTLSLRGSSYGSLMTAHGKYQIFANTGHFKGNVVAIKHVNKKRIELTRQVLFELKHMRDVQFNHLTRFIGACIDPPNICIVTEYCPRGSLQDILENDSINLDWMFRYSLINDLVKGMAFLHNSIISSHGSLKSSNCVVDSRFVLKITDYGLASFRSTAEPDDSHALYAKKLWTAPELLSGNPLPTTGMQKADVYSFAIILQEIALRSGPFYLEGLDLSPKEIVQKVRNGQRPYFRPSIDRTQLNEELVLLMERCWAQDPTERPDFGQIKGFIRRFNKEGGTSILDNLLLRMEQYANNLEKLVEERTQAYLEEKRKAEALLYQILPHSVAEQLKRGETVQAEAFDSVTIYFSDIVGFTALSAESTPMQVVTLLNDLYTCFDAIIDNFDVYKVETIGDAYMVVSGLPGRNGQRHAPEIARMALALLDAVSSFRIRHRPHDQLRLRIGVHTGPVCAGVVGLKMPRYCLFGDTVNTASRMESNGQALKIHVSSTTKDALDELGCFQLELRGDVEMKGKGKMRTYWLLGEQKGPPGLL

chondrocytes = conditions: CNP 10 to 100 pM, at the highest dose; cited from earlier work
[3] = tested on: human colon adenocarcinoma cells; conditions: 1 mM ANP, within 24 h; cited from earlier work
NPR-B = target: T2, NPR-B (Homo sapiens, UniProt P20594); experiment: NPR-B induced production of cyclic GMP in human glaucoma trabecular meshwork cells (GTM-3); assay type: cell-based; conditions: group by EC50 and Emax (CNP = 100%); Table 4; read-out: Activity (group), NPR-B activation assayed with GTM-3 cells
T2 construct: a functional assay using endogenously NPR-B expressing GTM-3 cells; endogenous in cells; host or cells: GTM-3 (human glaucoma trabecular meshwork cells)
T2 sequence (P20594 23-1047): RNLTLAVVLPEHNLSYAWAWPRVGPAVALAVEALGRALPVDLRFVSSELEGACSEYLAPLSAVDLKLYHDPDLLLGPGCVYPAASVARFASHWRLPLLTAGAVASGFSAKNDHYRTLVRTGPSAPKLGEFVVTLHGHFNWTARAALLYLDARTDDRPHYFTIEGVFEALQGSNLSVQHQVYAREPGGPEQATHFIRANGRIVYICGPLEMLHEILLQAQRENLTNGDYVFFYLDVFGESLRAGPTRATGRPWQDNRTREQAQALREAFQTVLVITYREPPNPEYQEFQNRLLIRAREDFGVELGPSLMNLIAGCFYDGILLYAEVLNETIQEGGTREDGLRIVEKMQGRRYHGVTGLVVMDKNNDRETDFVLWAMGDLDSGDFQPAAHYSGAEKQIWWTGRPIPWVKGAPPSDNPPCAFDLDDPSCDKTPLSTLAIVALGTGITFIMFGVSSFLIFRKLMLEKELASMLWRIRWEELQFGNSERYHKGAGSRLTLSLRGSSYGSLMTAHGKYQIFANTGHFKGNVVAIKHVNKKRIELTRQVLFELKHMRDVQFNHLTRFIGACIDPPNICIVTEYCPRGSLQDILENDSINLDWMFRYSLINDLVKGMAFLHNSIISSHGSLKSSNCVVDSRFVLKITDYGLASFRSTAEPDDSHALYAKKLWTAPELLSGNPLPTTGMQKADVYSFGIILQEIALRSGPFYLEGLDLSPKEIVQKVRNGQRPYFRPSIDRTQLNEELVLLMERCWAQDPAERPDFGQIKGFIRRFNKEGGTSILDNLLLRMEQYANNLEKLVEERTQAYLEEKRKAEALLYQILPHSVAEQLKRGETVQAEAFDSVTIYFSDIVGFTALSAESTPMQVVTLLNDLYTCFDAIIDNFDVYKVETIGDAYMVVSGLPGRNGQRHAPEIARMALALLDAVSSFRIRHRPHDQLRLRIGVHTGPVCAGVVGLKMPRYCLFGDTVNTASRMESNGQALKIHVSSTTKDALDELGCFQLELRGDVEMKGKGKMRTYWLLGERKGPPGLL

Structure (SMILES)	decrease in cell number of human renal carcinoma cells [1] [%]	RIOP, maximum percent reduction in IOP (rabbit eyes)	decrease in the number of small-cell lung cancer cells [2] [%]	stimulation of cGMP production (NPR-B receptor)	increase in cellularity (chondrocyte proliferation) (chondrocytes)	decrease in cell number [3]	EC50 (NPR-B) [nM]
CC[C@H](C)[C@@H]1NC(=O)[C@H](CCCNC(=N)N)NC(=O)[C@H](CC(=O)O)NC(=O)[C@H](CC(C)C)NC(=O)[C@H](CCCCN)NC(=O)[C@H](CC(C)C)NC(=O)CNC(=O)[C@H](Cc2ccccc2)NC(=O)[C@@H](NC(=O)CNC(=O)[C@H](CCCCN)NC(=O)[C@H](CO)NC(=O)[C@H](CC(C)C)NC(=O)CN)CSSC[C@@H](C(=O)O)NC(=O)CNC(=O)[C@H](CC(C)C)NC(=O)CNC(=O)[C@H](CO)NC(=O)[C@H](CCSC)NC(=O)[C@H](CO)NC(=O)CNC1=O [CNP, C-type natriuretic peptide]	10	− (− IOP reduction <15%)	39	up to 200 fold	up to 43%	–	–
CC[C@H](C)[C@@H]1NC(=O)[C@H](CCCNC(=N)N)NC(=O)[C@H](CC(=O)O)NC(=O)[C@H](CCSC)NC(=O)[C@H](CCCNC(=N)N)NC(=O)CNC(=O)CNC(=O)[C@H](Cc2ccccc2)NC(=O)[C@@H](NC(=O)[C@H](CO)NC(=O)[C@H](CO)NC(=O)[C@H](CCCNC(=N)N)NC(=O)[C@H](CCCNC(=N)N)NC(=O)[C@H](CC(C)C)NC(=O)[C@@H](N)CO)CSSC[C@@H](C(=O)N[C@@H](CC(N)=O)C(=O)N[C@@H](CO)C(=O)N[C@@H](Cc2ccccc2)C(=O)N[C@@H](CCCNC(=N)N)C(=O)N[C@@H](Cc2ccc(O)cc2)C(=O)O)NC(=O)CNC(=O)[C@H](CC(C)C)NC(=O)CNC(=O)[C@H](CO)NC(=O)[C@H](CCC(N)=O)NC(=O)[C@H](C)NC(=O)CNC1=O [ANP, atrial natriuretic peptide]	–	–	–	–	–	up to 97%	–
CCCCCCCC(=O)N[C@H](C)C(=O)N(C)[C@@H](Cc1ccccc1)C(=O)N[C@H](CCCNC(=N)N)C(=O)N[C@@H](CC(C)C)C(=O)N1C[C@H](O)C[C@H]1C(=O)N(C)[C@@H](CC(C)C)C(=O)N[C@@H](CC(=O)O)C(=O)N[C@@H](CCCNC(=N)N)C(=O)N[C@H](C(N)=O)[C@@H](C)CC [JAL-1085, Occ-ala-Nmf-arg-Leu-Hyp-Nml-Asp-Arg-Ile-NH2] (HELM PEPTIDE1{[CCCCCCCC(=O)[*:2]].[dA].[meF].[dR].L.[Hyp].[meL].D.R.I.[am]}$$$$V2.0)	–	+ (+ IOP reduction >15%)	–	–	–	–	< 1000
